We go through 4 compounds from patent US9759730B2, “Method and device for the determination of platelet function under flow conditions” (SIEMENS HEALTHCARE DIAGNOSTICS PRODUCTS GMBH, priority 2006, dated 2017).

Assay [1] has as its system platelet aggregation in platelet rich plasma. As to the kind of experiment: ADP-induced light transmission aggregometry (according to Born), in vitro treated samples, 2 μM ADP. The class given is cell-based, human. To be noted: MRS 2395 100 μmol/L in citrated blood, 5 min room temperature, PRP, 11 healthy donors. Here is the method: (§1) Venous blood was taken from 11 healthy donors and anticoagulated with sodium citrate (3.2% buffered Na citrate).
(§2) Aliquots of the citrated whole blood sample were treated in vitro with the P2Y(12) antagonist MRS 2395 (Sigma-Aldrich Chemie GmbH, Steinheim, Germany). For this purpose an ethanolic MRS 2395 stock solution (15 mg/mL) was mixed with the whole blood samples so that an end concentration of 100 μmol/L was obtained.
(§3) After addition of the reagents the blood samples were incubated at room temperature for 5 minutes.
In order to check whether the samples treated with MRS 2395 actually show a reduced platelet aggregation, platelet rich (PRP) and platelet poor (PPP) plasma was prepared from aliquots of the untreated and MRS 2395-treated whole blood samples described under Example 2a), and the samples were then treated with 2 μM ADP. The PPP samples were used as blank controls. The photometric measurement of the aggregation reaction was carried out in the automated coagulation apparatus BCT® (Dade Behring Marburg GmbH, Marburg, Germany) under continuous stirring (600 rpm). The platelet aggregation of the samples treated with MRS 2395 was reduced by a mean of 27% compared with the platelet aggregation of the untreated samples.

For assay [2], the system named is platelet function in whole blood. As to the kind of experiment: Closure time under flow conditions, ADP/PGE1/calcium test cartridge in PFA-100, citrated whole blood treated in vitro. The class given is cell-based, human. To be noted: cut-off 81 seconds, MRS 2395 100 μmol/L; for Number of samples with closure times above cut-off (n = 11): ASA 30 μmol/L, citrated whole blood of 11 healthy donors. How it is done:
For the preparation of a partition member for a test cartridge according to the invention a polyether sulfone filter membrane (Supor® membrane, Pall GmbH, Dreieich, Germany) was cut into strips. 1 μL of a solution comprising 7 μg/μL ADP (adenosine-5′-diphosphate potassium salt.2H2O, Sigma-Aldrich Chemie GmbH, Steinheim, Germany) and 5 ng/μL PGE1 (prostaglandin E1, Sigma-Aldrich Chemie GmbH, Steinheim, Germany) and 367.5 μg/μL CaCl2.2H2O (equivalent to 100 μg/μL Ca^2+ ions) were pipetted punctiform onto the membrane and the membrane was dried. Next a circular opening (aperture) with a diameter of 100 μm was punched out of the middle of the region of the membrane treated with the reagents. The membrane thus prepared was used as partition member in the measurement chamber of a PFA-100® test cartridge (Dade Behring Marburg GmbH, Marburg, Germany).
as §1, §2
Further aliquots of the citrated whole blood samples were treated in vitro with the COX-1 inhibitor acetylsalicylic acid (abbr.: ASA; Sigma-Aldrich Chemie GmbH, Steinheim, Germany). […]
To determine the closure time as a measure of platelet function the whole blood samples described under Example 2a) were investigated with the aid of the ADP/PGE1/calcium test cartridge according to the invention described in Example 1 in a PFA-100® apparatus (Platelet Function Analyzer-100, Dade Behring Marburg GmbH, Marburg, Germany). […] The time required up to the closure of the aperture by formation of a blood clot was determined as closure time. Every sample investigated was determined in duplicate and the mean value of a duplicate determination was used as the measurement value.
Venous blood was taken from healthy donors and anticoagulated with sodium citrate (3.2% buffered Na citrate). […] Samples from 186 donors were determined in duplicate with a Col/Epi PFA-100® test cartridge [see Example 2c)]. Samples from 159 donors were determined in duplicate with an ADP/PGE1/calcium test cartridge according to the invention [see Examples 1 and 2c)].
The reference ranges (normal range) for the Col/Epi closure time and the ADP/PGE1 closure time were established in that the measurement value ranges in which 90% of the measurement values found for the healthy subjects lay were determined (90% central interval of the normal distribution of all measurements). […]

Assay [3] shares this test system. Put plainly: Closure time under flow conditions, conventional Col/Epi PFA-100 test cartridge, citrated whole blood treated in vitro. The class given is cell-based, human. To be noted: cut-off 158 seconds, MRS 2395 100 μmol/L; for Number of samples with closure times above cut-off (n = 11): ASA 30 μmol/L, citrated whole blood of 11 healthy donors.
Assay [4] shares this test system. As to the kind of experiment: Closure time under flow conditions, ADP/PGE1 test cartridge without calcium in PFA-100, PPACK whole blood treated in vitro. Type of assay: cell-based, human. To be noted: cut-off 90 seconds, MRS 2395 150 μmol/L, ASA 30 μmol/L, MRS 2179 75 μmol/L; for Number of samples with closure times above cut-off (n = 10): ADP/PGE1 cartridge without calcium, PPACK whole blood of 10 healthy donors; for closure time relative to cut-off (FIG. 3, mean values): ADP/PGE1 cartridge, PPACK blood, 10 donors. Here is the method:
Venous blood was taken from 10 healthy donors and anticoagulated with 75 μM PPACK.
Aliquots of the whole blood samples were treated in vitro with the P2Y(12) antagonist MRS 2395 (Sigma-Aldrich Chemie GmbH, Steinheim, Germany). For this purpose an ethanolic MRS 2395 stock solution (15 mg/mL) was mixed with the whole blood samples so that an end concentration of 150 μmol/L was obtained.
Further aliquots of the whole blood samples were treated in vitro with the COX-1 inhibitor acetylsalicylic acid (abbr. ASA; Sigma-Aldrich Chemie GmbH, Steinheim, Germany). For this purpose an aqueous ASA stock solution (1 mg/mL) was mixed with the whole blood samples so that an end concentration of 30 μmol/L was obtained.
Further aliquots of the whole blood samples were treated in vitro with the P2Y(1) antagonist MRS 2179 (Sigma-Aldrich Chemie GmbH, Steinheim, Germany). For this purpose an aqueous MRS 2179 stock solution (1 mg/ml) was mixed with the whole blood samples so that an end concentration of 75 μmol/L was obtained.
as §3
For the determination of the closure time as a measure of the platelet function the whole blood samples described under Example 4a) were investigated with the aid of a ADP/PGE1 test cartridge according to the invention in a PFA-100® apparatus (Platelet Function Analyzer-100, Dade Behring Marburg GmbH, Marburg, Germany). The ADP/PGE1 test cartridge according to the invention used was prepared essentially as described in Example 1 but without the partition member having been treated with CaCl2.2H2O. The test cartridge thus comprised 7 μg ADP and 5 ng PGE1 but no calcium ions.
700 μL of a blood sample was added to the reservoir of the temperature equilibrated test cartridge (+37° C.) and incubated at +37° C. in the apparatus for 3 minutes. Next a partial vacuum of −40 mbar was applied by the apparatus when the blood was sucked through a capillary (diameter 200 μm) from the reservoir and finally through an opening (aperture) of the partition member in the measurement chamber. The time that was required up to the closure of the aperture by formation of a blood clot was determined as closure time. Every sample investigated was determined in duplicate and the mean value of a duplicate determination was used as the measurement value.
Owing to the use of PPACK as anticoagulant the cut-off determined with citrated whole blood in the above-described examples cannot be used. Therefore, the reference range for the ADP/PGE1 closure time from the 10 samples of the healthy donors treated with PPACK was calculated by the determination of the 90% central interval of the normal distribution of the mean values of the duplicate determinations. This gave the following reference ranges for the closure times:
The upper limit of the 90% central interval was defined as cut-off, i.e. as threshold value for a platelet dysfunction.

Assay [5] has the same test system. As to conditions: Method 2 ADP cartridge without PGE1; 13 patients on 75 mg clopidogrel daily. An excerpt: The samples were investigated with the aid of different methods to determine platelet function. • 1. according to the invention under flow conditions and use of an ADP/PGE1/calcium PFA-100® test cartridge (see Examples 1 and 2c), cut-off: >81 seconds; • 2. under flow conditions and use of a PFA-100® test cartridge that differed from the test cartridge according to the invention in accordance with Example 1 in that it comprised no PGE1, cut-off: >78 seconds; • 3. with ADP-induced light transmission aggregometry (according to Born) with addition of 2 μM ADP (see Example 2b), cut-off: <40% light transmission at end of test; • 4. with ADP-induced light transmission aggregometry (according to Born) with the addition of 5 μM ADP (see example 2b), cut-off: <40% light transmission at end of test. This method is recommended by Sanofi-Aventis, the manufacturer of the clopidogrel preparation Plavix®, for the determination of the antithrombotic effect of the medicament.
The cut-offs for the individual test procedures were determined by preliminary investigations with whole blood and plasma samples of normal donors.
“+” means an antithrombotic effect could be detected. “−” means no antithrombotic effect could be detected. “0” means that the duplicate determination gave contradictory results, i.e. one value above and one value below the cut-off.

For assay [6] the test system is unchanged. As to conditions: Method 1 ADP/PGE1/calcium cartridge; 13 patients on 75 mg clopidogrel daily.
Assay [7] deals with platelet aggregation. As to conditions: Method 3 aggregometry 2 μM ADP; 13 patients on 75 mg clopidogrel daily.
Assay [8] relates to platelet aggregation. As to conditions: Method 4 aggregometry 5 μM ADP; 13 patients on 75 mg clopidogrel daily.

Read-outs that look alike come from different tables or passages of the source.

`CNc1nc(Cl)nc2c1ncn2CC(COC(=O)C(C)(C)C)COC(=O)C(C)(C)C` [MRS 2395, 2,2-dimethyl-propionic acid 3-(2-chloro-6-methylaminopurin-9-yl)-2-(2,2-dimethyl-propionyloxymethyl)-propyl ester]: in assay [1], the “platelet aggregation reduced compared with untreated samples (mean)” value is on record as 27%. Besides, the “Number of samples with closure times above cut-off (n = 11)” value in assay [2] worked out at 9; in assay [3] it was 4. Moreover, the “closure time relative to cut-off (FIG. 2, mean values)” value in assay [2] (citrated blood, 11 donors) was “closure times that lie significantly above the upper reference value (cut-off)”; in assay [3] (citrated blood, 11 donors), “lie to a greater extent below the upper reference value (cut-off)”. Further, in assay [4], the “Number of samples with closure times above cut-off (n = 10)” value (“Number of samples … (n = 10)” below) is reported as 9. In addition, in assay [4], the “closure time relative to cut-off (FIG. 3, mean values)” value is “closure times that lie significantly above the reference value (cut-off)”.

Regarding `COC(=O)[C@H](c1ccccc1Cl)N1CCc2sccc2C1` [clopidogrel], the “Sensitivity (share of 13 patients with detected antithrombotic effect)” value in assay [5] is 46%; in assay [6], 77%; in the assay with platelet aggregation [7] it was 69%; with platelet aggregation [8] it was 62%. In addition, the “number of patients in whom the antithrombotic effect could be detected (of 13)” value in assay [6] is listed as 10.

`CC(=O)Oc1ccccc1C(=O)O` [Acetylsalicylic acid, acetylsalicylic acid]: the “Number of samples with closure times above cut-off (n = 11)” value in assay [2] is 1; in assay [2] (listed as acetylsalicylic acid), “one”; in assay [3], 8. The “Number of samples … (n = 10)” value is 0 in assay [4] and “none” in assay [4] (listed as acetylsalicylic acid). Moreover, the “closure time relative to cut-off (FIG. 3, mean values)” value in assay [4] is “no prolongation of closure times”.

On to `CNc1ncnc2c1ncn2[C@H]1C[C@H](OP(=O)(O)O)[C@@H](COP(=O)(O)O)O1.N.N` [MRS 2179, 2′-deoxy-N6-methyladenosine-3′,5′-bisphosphate, diammonium salt], for which, in assay [4], the “Number of samples … (n = 10)” value was 10 and the “closure time relative to cut-off (FIG. 3, mean values)” value is listed as “closure times that lie significantly above the reference value (cut-off)”.
